Data reported in patent US12251400B2, “Liquid concentrates of calcium and magnesium” (BIOLINK LIFE SCIENCES, INC., priority 2019, dated 2025).

Assay: In vitro assessment of phosphate binding
Conditions: 24 hours post-mixing
Protocol: Test Preparations: Solutions of the test article (calcium propionate and magnesium propionate) and control article (calcium acetate) are prepared in deionized, purified water having 18 MO or greater resistance. The pH of each solution is adjusted to the desired value by the addition of concentrated hydrochloric acid or sodium hydroxide, as appropriate.
Tests and Assays: An HPLC method with conductivity detection was developed and validated for use in the determination of propionate, acetate and phosphate. HPLC analysis is performed using a Dionex Aquion ion chromatography system Detection of the anionic species is enabled using a Dionex ED50 Electrochemical Detector, operating in Conductivity Mode. Limits of Detection and Quantitation are enhanced through the use of a Dionex Anion Self-Regenerating Suppressor. After assay-specific development and verification of assay performance is completed, the analysis of phosphate and propionate or acetate is performed by sampling the test solution and diluting it, if necessary, to a concentration within the linear range of the Assay. The sample is then injected onto the HPLC column and eluted with a sodium hydroxide gradient. Data is acquired using Dionex Chromeleon® software. […]

In the case of `CC(=O)[O-].CC(=O)[O-].[Ca+2]` [calcium acetate], the Pi binding (pH 4.5) was “about 60%” and the Pi binding (pH 6.8) was “over 90%”.
